We go through three compounds from patent US8765959B2, “Piperidine derivatives” (Boehringer Ingelheim International GmbH, priority 2011, dated 2014).

pIC50: −log10 of the molar value.

In the test the target is T1, human ACC2 (Homo sapiens, UniProt O00763).
T1 construct: made in house; host or cells: insect cells (baculoviral expression system)
T1 sequence (O00763 129-2458 limits assumed): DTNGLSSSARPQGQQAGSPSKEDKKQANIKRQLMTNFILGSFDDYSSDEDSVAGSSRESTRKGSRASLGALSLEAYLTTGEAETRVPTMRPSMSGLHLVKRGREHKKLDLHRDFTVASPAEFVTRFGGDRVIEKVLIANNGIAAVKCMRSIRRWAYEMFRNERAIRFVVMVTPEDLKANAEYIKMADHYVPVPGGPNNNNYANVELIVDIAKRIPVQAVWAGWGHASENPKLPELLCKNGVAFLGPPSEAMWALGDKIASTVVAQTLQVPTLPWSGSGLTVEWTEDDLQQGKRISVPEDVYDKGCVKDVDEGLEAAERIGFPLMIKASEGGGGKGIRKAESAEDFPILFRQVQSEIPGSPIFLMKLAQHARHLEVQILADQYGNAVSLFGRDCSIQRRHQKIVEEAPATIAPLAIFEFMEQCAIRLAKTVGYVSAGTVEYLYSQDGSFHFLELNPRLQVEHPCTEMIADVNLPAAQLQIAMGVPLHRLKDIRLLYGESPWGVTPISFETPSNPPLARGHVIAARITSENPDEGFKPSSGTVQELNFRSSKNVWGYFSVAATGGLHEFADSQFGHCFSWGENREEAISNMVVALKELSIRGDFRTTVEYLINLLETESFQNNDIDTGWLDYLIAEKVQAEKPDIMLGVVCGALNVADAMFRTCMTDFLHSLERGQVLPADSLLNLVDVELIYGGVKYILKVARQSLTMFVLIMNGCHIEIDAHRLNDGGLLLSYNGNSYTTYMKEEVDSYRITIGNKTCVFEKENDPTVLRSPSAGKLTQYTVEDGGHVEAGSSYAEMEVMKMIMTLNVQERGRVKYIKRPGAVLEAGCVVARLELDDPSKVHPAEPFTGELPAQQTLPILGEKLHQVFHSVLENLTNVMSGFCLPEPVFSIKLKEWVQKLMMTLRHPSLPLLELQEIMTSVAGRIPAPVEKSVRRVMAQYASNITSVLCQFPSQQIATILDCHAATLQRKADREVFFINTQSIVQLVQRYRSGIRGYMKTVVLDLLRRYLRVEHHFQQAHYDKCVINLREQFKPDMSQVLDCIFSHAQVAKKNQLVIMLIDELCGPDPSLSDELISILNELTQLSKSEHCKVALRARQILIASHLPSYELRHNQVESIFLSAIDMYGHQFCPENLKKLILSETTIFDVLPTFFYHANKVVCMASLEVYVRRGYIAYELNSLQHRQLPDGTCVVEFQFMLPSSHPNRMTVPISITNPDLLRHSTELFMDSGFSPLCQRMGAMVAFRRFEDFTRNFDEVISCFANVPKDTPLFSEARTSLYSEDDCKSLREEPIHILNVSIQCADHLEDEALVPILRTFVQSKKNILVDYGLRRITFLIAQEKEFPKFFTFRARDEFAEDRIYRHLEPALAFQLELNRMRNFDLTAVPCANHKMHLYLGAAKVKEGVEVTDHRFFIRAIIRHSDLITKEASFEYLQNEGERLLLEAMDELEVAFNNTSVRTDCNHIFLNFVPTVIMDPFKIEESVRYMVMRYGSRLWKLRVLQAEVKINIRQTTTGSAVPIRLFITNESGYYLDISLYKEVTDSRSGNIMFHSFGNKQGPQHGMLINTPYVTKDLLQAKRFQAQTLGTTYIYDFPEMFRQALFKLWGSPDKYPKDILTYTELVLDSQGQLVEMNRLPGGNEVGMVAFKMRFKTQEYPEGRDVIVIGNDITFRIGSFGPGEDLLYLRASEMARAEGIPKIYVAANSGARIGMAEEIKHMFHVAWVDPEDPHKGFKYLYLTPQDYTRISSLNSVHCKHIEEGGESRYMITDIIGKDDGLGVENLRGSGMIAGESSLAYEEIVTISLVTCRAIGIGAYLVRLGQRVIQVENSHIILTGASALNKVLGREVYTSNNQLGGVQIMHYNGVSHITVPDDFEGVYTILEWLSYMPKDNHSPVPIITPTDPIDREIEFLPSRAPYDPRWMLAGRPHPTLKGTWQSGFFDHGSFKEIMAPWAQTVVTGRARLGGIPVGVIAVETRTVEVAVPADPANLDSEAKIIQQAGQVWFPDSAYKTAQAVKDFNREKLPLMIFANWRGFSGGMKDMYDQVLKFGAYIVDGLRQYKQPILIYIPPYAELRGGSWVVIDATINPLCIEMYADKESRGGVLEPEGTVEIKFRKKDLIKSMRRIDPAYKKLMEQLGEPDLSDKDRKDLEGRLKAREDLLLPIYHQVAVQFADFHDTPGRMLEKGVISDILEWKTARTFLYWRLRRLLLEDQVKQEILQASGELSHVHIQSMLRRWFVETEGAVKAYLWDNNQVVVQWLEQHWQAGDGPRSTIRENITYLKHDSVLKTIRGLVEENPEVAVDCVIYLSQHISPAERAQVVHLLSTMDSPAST
Description: ACC2 assay, spectrophotometric 384 well assay (NADH-linked, coupled lactate dehydrogenase/pyruvate kinase). In kind it is biochemical. Conditions: ACC2 assay; human ACC2 construct lacking 128 N-terminal amino acids; 25° C., 340 nm, 15 minutes; read-out: IC50. The method, then:
Spectrophotometric 384 Well Assay
Malonyl CoA formation by acetyl CoA carboxylases is stoichometrically linked to the consumption of ATP. ACC2 activity is measured in a NADH-linked kinetic method measuring ADP generated during the ACC reaction using a coupled lactate dehydrogenase/pyruvate kinase reaction.
For biological testing, a human ACC2 construct which lacks the 128 amino acids at the N-terminus for increased solubility (nt 385-6966 in Genbank entry AJ575592) is cloned. The protein is then expressed in insect cells using a baculoviral expression system. Protein purification is performed by anion exchange.
All compounds are dissolved in dimethyl sulfoxide (DMSO) to a concentration of 10 mM.
Assay reactions are then carried out in 384-well plates, with hACC2 in an appropriate dilution and at final assay concentrations (f.c.) of 100 mM Tris (pH 7.5), 10 mM trisodium citrate, 25 mM KHCO3, 10 mM MgCl2, 0.5 mg/ml BSA, 3.75 mM reduced L-glutathione, 15 U/ml lactate dehydrogenase, 0.5 mM phosphoenolpyruvate, 15 U/ml pyruvate kinase, compounds at different concentrations at final DMSO concentrations of 1%.
The enzymatic reaction is then started by addition of a mixture of NADH, acetyl Coenzyme A (both 200 μM f.c.) and ATP (500 uM f.c.). The decrease of the optical density (slope S) is then determined at 25° C. at a wavelength of 340 nm over 15 minutes in a spectrophotometric reader.
Each assay microtiter plate contains wells with vehicle instead of compound as controls for the non-inhibited enzyme (100% CTL; ‘HIGH’) and wells without acetyl-CoA as controls for non-specific NADH degradation (0% CTL; ‘LOW’).
The slope S is used for calculation of % CTL=(S(compound)−S(‘LOW’))/(S(‘HIGH’)−S(‘LOW’))*100. Compounds will give values between 100% CTL (no inhibition) and 0% CTL (complete inhibition).
For IC50 value determination, the sample slope in the presence of the test compound after subtraction of the low controls (S(compound)−S(‘LOW’)) are used.
An IC50 value is derived from the compound slopes at different dosages after subtraction of the low controls (S(compound)−S(‘LOW’)) by non-linear regression curve fitting (equation y=(A+((B−A)/(1+((C/x)^D))))).
Take `CCOc1ccc(C2CCN(c3ccc([C@H](C)NC(=O)N(CC)CC)cc3)CC2)cc1` [Example 4.4]: the pIC50 was 5.43.
The value for `CCOc1ccc(C2CCN(c3ccc([C@H](C)NC(=O)OC)cc3)CC2)cc1` [Example 5.1, (S)-(1-{4-[4-(4-Ethoxy-phenyl)-piperidin-1-yl]-phenyl}-ethyl)-carbamic acid methyl ester] was 5.68; that for `CCOc1ccc(C2CCN(c3ccc([C@H](C)N(C)C(C)=O)cc3)CC2)cc1` [Example 6.1, (S)—N-(1-{4-[4-(4-Ethoxy-phenyl)-piperidin-1-yl]-phenyl}-ethyl)-N-methyl-acetamide] was 5.46.
